Structures are written as SMILES.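 Tested at 5 concentrations; 48 h exposure; 96-well plates; endpoints linearly interpolated, else capped at highest concentration. GI50: concentration for 50% inhibition of growth. The concentration for full growth arrest is given as TGI.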

The first assay concerns SK-MEL-2 melanoma. Briefly: NCI tumour cell line growth inhibition, 48 h.
With `COc1ccc(-c2c3c(N)nc(-c4ccncc4)nc3nc3c2c(C)nn3-c2ccccc2)cc1`, the GI50 was 31 µM and the TGI was > 100 µM.
With `COc1cccc(-n2ncc3c(N/N=C/c4ccc(C(=O)NCCN(C)C)cc4)ncnc32)c1`, the GI50 was > 9.86 µM and the TGI is > 13.9 µM.
In the case of `O=c1/c(=C/c2ccccc2F)sc2nc3ccccc3n12`, the TGI is > 100 µM.
With `CC1(C)CC(=O)c2c(C(F)(F)F)nn(-c3ccc(C(N)=O)c(NC4CCC(OC(=O)CN)CC4)c3)c2C1` (configuration not stated), the GI50 was 0.0683 µM and the TGI is > 100 µM.
As for `O=C(NCCCCCCNC(=O)n1cc(F)c(=O)[nH]c1=O)NCCCOCCOCCOCCOCCOCCOCCOCCOCCOCCOCCOCCOCCOCCOCCOCCOCCOCCOCCOCCOCCOCCCNC(=O)C(O)C(O)C(O)C(O)CO` (configuration not stated), the TGI was > 100 µM.
Regarding `COc1cc(C2CC(c3ccc4c(c3)OCO4)=NN2C=O)cc(OC)c1OC` (configuration not stated), the GI50 is 9.46 µM and the TGI is > 100 µM.
In the case of `CCCC(=O)OC1C(C(O)CO)OC2OC(C)(C)OC21` (configuration not stated), the TGI is > 100 µM.
On the same count and under the same terms, as for `Cc1ccc(N=Cc2ccc3c(c2)OCO3)cc1C`, the figure is > 100 µM.
Turning to `COC(=O)[C@H](C[C@H](Cc1ccccc1)NC(=O)c1csc([C@@H](C[C@H](C(C)C)N(C)C(=O)[C@@H](NC(=O)[C@H]2CCCCN2C)C(C)C)OC(C)=O)n1)NC(=O)OCc1ccccc1`, the GI50 was < 0.0009 µM and the TGI was found to be 4.53 µM.
Taken in the same sequence, the figures for `CCCCCCCCN=C(N)c1ccc(N2CCN(c3ccc(C(N)=NCCCCCCCC)cc3)CC2)cc1` were 1.69 µM and > 50 µM.
`NNC(=O)/C(=C/c1ccc(Cl)cc1Cl)NC(=O)c1ccccc1`: the TGI is > 100 µM.
On the same count and under the same terms, under `COc1cc(OC(C)=O)cc2c(OC(C)=O)ccc(OC(C)=O)c12` stands > 100 µM.
As to `COc1ccc2c(c1)cn1c3ccc(O)cc3nc(N)c21`, the GI50 is 0.27 µM and the TGI came out at 5.14 µM.
For `OC(c1cc(-c2ccccc2)nc2ccc(Cl)cc12)C1CCCCN1` (configuration not stated), the GI50 was 2.45 µM and the TGI came out at 5.02 µM.
Turning to `CCc1ccccc1NC(=O)C(=O)CC(=O)c1sc(Nc2ccccc2)nc1C`, the TGI was > 100 µM.
As to `CC#C[C@]1(O)CC[C@H]2[C@@H]3CCC4=CC(=O)CCC4=C3[C@@H](c3ccc4c(c3)OCO4)C[C@@]21C`, the GI50 is 111 µM and the TGI turned out to be 291 µM.
Taken in the same sequence, the figures for `COc1ccc(OC)c(/C=C2\SC(=S)NC2=O)c1` were 80.6 µM and > 100 µM.

Another assay has as its system HT29 colon. Briefly: NCI tumour cell line growth inhibition, 48 h.
Consider `COc1ccc(-c2c3c(N)nc(-c4ccncc4)nc3nc3c2c(C)nn3-c2ccccc2)cc1`, for which the GI50 is 3.57 µM and the TGI is 16 µM.
In the case of `COc1cccc(-n2ncc3c(N/N=C/c4ccc(C(=O)NCCN(C)C)cc4)ncnc32)c1`, the GI50 is 0.814 µM and the TGI was determined as 4.55 µM.
As for `O=c1/c(=C/c2ccccc2F)sc2nc3ccccc3n12`, the TGI was > 100 µM.
Regarding `CC1(C)CC(=O)c2c(C(F)(F)F)nn(-c3ccc(C(N)=O)c(NC4CCC(OC(=O)CN)CC4)c3)c2C1` (configuration not stated), the GI50 was 0.0321 µM and the TGI was > 100 µM.
For `O=C(NCCCCCCNC(=O)n1cc(F)c(=O)[nH]c1=O)NCCCOCCOCCOCCOCCOCCOCCOCCOCCOCCOCCOCCOCCOCCOCCOCCOCCOCCOCCOCCOCCOCCCNC(=O)C(O)C(O)C(O)C(O)CO` (configuration not stated), the TGI was > 100 µM.
For the molecule `COc1cc(C2CC(c3ccc4c(c3)OCO4)=NN2C=O)cc(OC)c1OC` (configuration not stated), the GI50 was 0.467 µM and the TGI is > 100 µM.
Turning to `CCCC(=O)OC1C(C(O)CO)OC2OC(C)(C)OC21` (configuration not stated), the TGI is > 100 µM.
Still for that read-out and setting: as for `Cc1ccc(N=Cc2ccc3c(c2)OCO3)cc1C`, the figure is > 100 µM.
For the molecule `COC(=O)[C@H](C[C@H](Cc1ccccc1)NC(=O)c1csc([C@@H](C[C@H](C(C)C)N(C)C(=O)[C@@H](NC(=O)[C@H]2CCCCN2C)C(C)C)OC(C)=O)n1)NC(=O)OCc1ccccc1`, the GI50 is < 0.0009 µM.
Regarding `CCCCCCCCN=C(N)c1ccc(N2CCN(c3ccc(C(N)=NCCCCCCCC)cc3)CC2)cc1`, the GI50 is 1.61 µM and the TGI was determined as 13.6 µM.
With `NNC(=O)/C(=C/c1ccc(Cl)cc1Cl)NC(=O)c1ccccc1`, the TGI was > 100 µM.
On the same count and under the same terms, as for `COc1cc(OC(C)=O)cc2c(OC(C)=O)ccc(OC(C)=O)c12`, the figure is > 100 µM.
With `COc1ccc2c(c1)cn1c3ccc(O)cc3nc(N)c21`, the GI50 is 1.45 µM and the TGI worked out at 4.31 µM.
Turning to `OC(c1cc(-c2ccccc2)nc2ccc(Cl)cc12)C1CCCCN1` (configuration not stated), the GI50 was 2.96 µM and the TGI amounted to 6.57 µM.
`CCc1ccccc1NC(=O)C(=O)CC(=O)c1sc(Nc2ccccc2)nc1C`: the TGI was > 100 µM.
For `CC#C[C@]1(O)CC[C@H]2[C@@H]3CCC4=CC(=O)CCC4=C3[C@@H](c3ccc4c(c3)OCO4)C[C@@]21C`, the GI50 is 225 µM and the TGI was > 1000 µM.
For the molecule `COc1ccc(OC)c(/C=C2\SC(=S)NC2=O)c1`, the GI50 is 42.1 µM and the TGI was > 100 µM.

In a further assay the test system is SR leukemia. Briefly: NCI tumour cell line growth inhibition, 48 h.
Take `COc1ccc(-c2c3c(N)nc(-c4ccncc4)nc3nc3c2c(C)nn3-c2ccccc2)cc1`: the GI50 is 1.53 µM and the TGI was > 100 µM.
For `COc1cccc(-n2ncc3c(N/N=C/c4ccc(C(=O)NCCN(C)C)cc4)ncnc32)c1` the same measures were 2.29 µM and > 13.9 µM.
Take `O=c1/c(=C/c2ccccc2F)sc2nc3ccccc3n12`: the TGI was > 100 µM.
Consider `CC1(C)CC(=O)c2c(C(F)(F)F)nn(-c3ccc(C(N)=O)c(NC4CCC(OC(=O)CN)CC4)c3)c2C1` (configuration not stated), for which the GI50 is 0.0301 µM and the TGI was 17.6 µM.
On to `O=C(NCCCCCCNC(=O)n1cc(F)c(=O)[nH]c1=O)NCCCOCCOCCOCCOCCOCCOCCOCCOCCOCCOCCOCCOCCOCCOCCOCCOCCOCCOCCOCCOCCOCCCNC(=O)C(O)C(O)C(O)C(O)CO` (configuration not stated), for which the TGI was > 100 µM.
Take `COc1cc(C2CC(c3ccc4c(c3)OCO4)=NN2C=O)cc(OC)c1OC` (configuration not stated): the GI50 was 0.52 µM and the TGI was > 100 µM.
For `CCCC(=O)OC1C(C(O)CO)OC2OC(C)(C)OC21` (configuration not stated), the TGI is > 100 µM.
For the molecule `Cc1ccc(N=Cc2ccc3c(c2)OCO3)cc1C`, the TGI was > 100 µM.
As for `COC(=O)[C@H](C[C@H](Cc1ccccc1)NC(=O)c1csc([C@@H](C[C@H](C(C)C)N(C)C(=O)[C@@H](NC(=O)[C@H]2CCCCN2C)C(C)C)OC(C)=O)n1)NC(=O)OCc1ccccc1`, the GI50 is < 0.0009 µM and the TGI was > 4.29 µM.

The values are drawn from PubChem BioAssay (NCI).
